Reference: patent publication US20100129800A1, “POLYMERS AND THEIR USE AS FLUORESCENT LABELS” (priority 2007, published 2010)
Like-named read-outs stand apart in the source and are kept apart here. Ends that are not written are not given here. Nct = N-((2S,3R)-1,3-dihydroxybutan-2-yl)-(4a,10a-dihydro-10,11-diazabenzo[b]fluoren-10-yl)acetamide monomer; Qut = N-(1,3-dihydroxybutan-2-yl)-10H-indolo[3,2-d]quinoline-11-carboxamide monomer; Pht = N-((2S,3R)-1,3-dihydroxybutan-2-yl)-2-phenylquinoline-4-carboxamide monomer; Act = N-(1,3-dihydroxybutan-2-yl)acridine-9-carboxamide monomer; code p = not defined here

Columns and labels:
[1] = Fluorescence properties of the new compounds (excitation and emission wavelengths); format: physicochemical
[2] = test system: G-quadruplex (thrombin-binding aptamer: 5′-GGTTGGTGTGGTTGG-3′); conditions: 1 μM ligand, 24 hours, room temperature
Text: (§1) Compounds that bind nucleic acids may show preference for certain sequences. This preference can be used for the detection of specific nucleic acid sequences. One of the methods used to analyse the sequence specificity of DNA-binding compounds is the competition dialysis (c.f. Ren, J. et al., “Sequence and structural selectivity of nucleic acid binding ligands”, Biochemistry, 1999, vol. 38, pp […]). In this method different nucleic acid structures are dialyzed against a common compound solution. […] The amount of compound present in each DNA sequence is measured by fluorescence.
(§2) We analysed the sequence specificity of the following polymers of the invention: Aca-p-Aca, QgpQgp(npa), Act-(p-Act)5, Act-p-Qut-p-Agt, Act-p-Qut-p-Act, Act-p-Qut-p-Nct, Qut-p-Qut-p-Qut, Act-p-Qut-p-Qut, and Act-p-Act-p-Act for DNA sequences: • duplex with an alternating CG sequence (5′-CGCGCG-T4-CGCGCG-3′); • duplex with a contiguous CG sequence (5′- CCCGGG-T4-CCCGGG-3′); • duplex with an alternating AT sequence (5′-[…]-T4-[…]); • duplex with a contiguous AT sequence (5′-[…]-T4-[…]); • a parallel triplex (5′-T20-3′-3′-T20-5′+A20); and • a G-quadruplex (thrombin-binding aptamer: 5′-[…]-3′ (SEQ ID NO 1); (c.f. Bock, L. C. et al., “Selection of single-stranded DNA molecules that bind and inhibit human thrombin”, Nature, 1992, vol. 355, pp 564-566). […]

[3] = test system: duplex with a contiguous AT sequence (5′-AAAATTTT-T4-AAAATTTT); conditions: 1 μM ligand, 24 hours, room temperature
Text: as §1, §2

[4] = test system: AT rich sequences; assay: Competitive dialysis; format: binding
Text: as §1
(§3) We analysed the sequence specificity of the following polymers of the invention: Aca-p-Aca, QgpQgp(npa), Act-(p-Act)5, Act-p-Qut-p-Agt, Act-p-Qut-p-Act, Act-p-Qut-p-Nct, Qut-p-Qut-p-Qut, Act-p-Qut-p-Qut, and Act-p-Act-p-Act for DNA sequences: • duplex with an alternating CG sequence (5′-CGCGCG-T4-CGCGCG-3′); • duplex with a contiguous CG sequence (5′- CCCGGG-T4-CCCGGG-3′); • duplex with an alternating AT sequence (5′-[…]-T4-[…]); • duplex with a contiguous AT sequence (5′-[…]-T4-[…]); • a parallel triplex (5′-T20-3′-3′-T20-5′+A20); and • a G-quadruplex (thrombin-binding aptamer: 5′-[…]-3′ (SEQ ID NO 1); (c.f. Bock, L. C. et al., “Selection of single-stranded DNA molecules that bind and inhibit human thrombin”, Nature, 1992, vol. 355, pp 564-566).
(§4) Said DNA sequences have been used in order to determine: 1) the affinity of each one of the polymers for a specific tandem of nucleotides (CG, AT, GT); and 2) if the affinity for a specific tandem of nucleotides is affected by its distribution into the sequence (i.e., if the tandem is alternated or contiguous in the sequence).
(§5) The competition dialysis assay was performed placing into a beaker 200 ml of dialysate solution containing 1 μM of ligand in 2 mM sodium phosphate, 2 mM EDTA and 0.185 M NaCl pH 7.0. A volume of 0.1 ml (at 1 mg/ml) of each DNA samples was pipeted into a separate 0.1 ml dialysis unit (Mini Slide-A-lyzer 3.5K, Pierce). The dialysis units were placed in the beaker containing the dialysate solution using a floating device. The contents were allowed to equilibrate with continuous stirring for 24 hours at room temperature. At the end of the equilibration period, DNA samples were carefully removed to eppendorf tubes and were taken to a final concentration of 1% (w/v) sodium dodecyl sulfate (SDS). The concentration of polymer within each dialysis unit was then determined by fluorescence spectroscopy. The free polymer concentration was determined using an aliquot of the dialysate solution as well as with the solution coming from a blank (without DNA) dialysis unit.
(§6) The concentration of the polymer (which is determined by fluorescence spectroscopy) indicates its specificity for a specific sequence: the more higher is the concentration, more specific is for said sequence.

[5] = test system: parallel triplex (5′-T20-3′-3′-T20-5′+A20); assay: Competitive dialysis; format: binding
Text: as §1, §3, §4, §5, §6

[6] = test system: duplex with a contiguous CG sequence (5′- CCCGGG-T4-CCCGGG-3′); assay: Competitive dialysis; format: binding
Text: as §1, §3, §4, §5, §6

[7] = test system: duplex structure of DNA; assay: Melting experiments (DNA-duplex stabilization); format: physicochemical; conditions: 1 M NaCl, 10 mM sodium phosphate buffer of pH=7; for Tm(° C.): 260 nm, 1° C./min; for ΔTm (° C.): versus unmodified oligonucleotide
Description: Appropriate oligonucleotides were dissolved in a solution containing 1 M NaCl, 10 mM sodium phosphate buffer of pH=7. UV Absorption spectra and melting experiments (absorbance vs temperature) were recorded in 1-cm path length cell by using a spectrophotometer, with a temperature controller and a programmed temperature increase rate of 1° C./min. Melting curves were recorded at 260 nm, and melting temperatures were measured at the maximum of the first derivatives of the melting curves.

[8] = Fluorescent properties of duplexes carrying fluorophores at the 3′-end; format: physicochemical; conditions: oligonucleotide duplex carrying fluorophore at the 3′-end
Description: Solid supports carrying oligomers with L-threoninol and 3-aminopropan-1,2-diol backbones were introduced on a DNA synthesizer and oligonucleotides were assembled using standard protocols. After the assembly of the desired DNA sequence, supports were treated with concentrated ammonia at 55° C. for a minimum of 6 hrs yielding oligonucleotides carrying oligomers of fluorophores at the 3′-end.
Two oligonucleotide sequences were synthetized (sequence 1: 5′-[…]-3′ sequence 2: 5′-[…]-3′) carrying different fluorophores at the 3′-end. Solid supports containing dimer and trimer fluorophores (prepared in examples 28-31) and standard protocols for oligonucleotide synthesis were used in order to obtain these modified oligonucleotides (Table 2). Ammonia deprotection was performed at 55° C. for 6 hours. The resulting solutions were concentrated to dryness. Then, the residue was dissolved in water and desalted through a NAP-10 column. Fractions containing oligonucleotides were analysed by HPLC and characterized by UV and MS spectrometry.
Next, the fluorescent properties of duplexes carrying fluorophores at the 3′-end was determined and the results are shown in Table 3: […]

[9] = 1 μM ligand, 24 hours, room temperature

Row | Fluorescence Excitation (nm) ([1]; free compound) | Fluorescence emission (nm) ([1]; free compound) | Compound | affinity (concentration of polymer retained, by fluorescence) [5, 9] | Tm(° C.) [7] [°C] | ΔTm (° C.) [7] | Emission (nm) [8] [nm] | Excitation (nm) [8] [nm] | also measured
1 | 349 | 495 | CC(=O)NCCN(CC(=O)NCCN(CC(=O)NCCCCCCO)C(=O)CNC(=O)c1c2ccccc2nc2c1[nH]c1ccccc12)C(=O)CNC(=O)c1c2ccccc2nc2c1[nH]c1ccccc12 [Example 48] | – | – | – | – | – | affinity (concentration of polymer retained, by fluorescence) [2]: high affinity; affinity (concentration of polymer retained, by fluorescence) [3]: high affinity
2 | 353 | 440 | CC(O)C(COP(=O)(O)OC(C)C(COP(=O)(O)OC(C)C(CO)NC(=O)c1c2ccccc2nc2ccccc12)NC(=O)c1c2ccccc2nc2c1[nH]c1ccccc12)NC(=O)c1c2ccccc2nc2c1[nH]c1ccccc12 (stereo not drawn) [Example 29, O-{2-N-(Acridine-9-carbamoyl)-(1-hydroxybut-3-yl)} phosphate (3-1) O-{2-N-(10H-indolo[3,2-d]quinoline-11-carbamoyl)-3-oxybut-1-yl} phosphate (3-1) O-(2-N-{10H-indolo[3,2-d]quinoline-11-carbamoyl}-3-hydroxybut-1-yl)] | higher affinity | – | – | – | – | affinity (concentration of polymer retained, by fluorescence) [4, 9]: higher affinity; affinity (concentration of polymer retained, by fluorescence) [6, 9]: higher affinity
3 | – | – | TTCCGGAA-p-Act-p-Qut-p-Qut: oligonucleotide 5′-TTCCGGAA-3′ carrying trimer Act-p-Qut-p-Qut at the 3′-end (DNA TTCCGGAA-{code p-Act-code p-Qut-code p-Qut}; not fully specified; cysteine pairing not given here; reading uncertain; also: DNA oligonucleotide with 3'-Act-p-Qut-p-Qut trimer) | – | 44 | +9 °C | 436 | 352 | –
4 | – | – | CC(O)C(COP(=O)(O)OC(C)C(COP(=O)(O)OC(C)C(CO)NC(=O)c1c2ccccc2nc2ccccc12)NC(=O)c1c2ccccc2nc2c1[nH]c1ccccc12)NC(=O)c1c2ccccc2nc2ccccc12 (stereo not drawn) [Example 44, O-{2-N-(Acridine-9-carbamoyl)-(1-hydroxybut-3-yl)} phosphate (3-1) O-{2-N-(10H-indolo[3,2-d]quinoline-11-carbamoyl)-3-oxybut-1-yl} phosphate (3-1) O-{2-N-(acridine-9-carbamoyl)-(3-hydroxybut-1-yl)}] | – | – | – | – | – | Fluorescence Excitation (nm) [1]: 359 nm; Fluorescence emission (nm) [1]: 438 nm; affinity (concentration of polymer retained, by fluorescence) [4]: higher affinity; affinity (concentration of polymer retained, by fluorescence) [5]: higher affinity; affinity (concentration of polymer retained, by fluorescence) [6]: higher affinity
5 | 350 | 438 | CC(O)C(COP(=O)(O)OC(C)C(COP(=O)(O)OC(C)C(COP(=O)(O)OC(C)C(COP(=O)(O)OC(C)C(COP(=O)(O)OC(C)C(CO)NC(=O)c1c2ccccc2nc2ccccc12)NC(=O)c1c2ccccc2nc2ccccc12)NC(=O)c1c2ccccc2nc2ccccc12)NC(=O)c1c2ccccc2nc2ccccc12)NC(=O)c1c2ccccc2nc2ccccc12)NC(=O)c1c2ccccc2nc2ccccc12 (stereo not drawn) [Example 30, O-{2-N-(Acridine-9-carbamoyl)-(1-hydroxybut-3-yl)} phosphate (3-1) O-{2-N-(acridine-9-carbamoyl)-(1-hydroxybut-3-yl)} phosphate (3-1) O-{2-N-(acridine-9-carbamoyl)-(1-hydroxybut-3-yl)} phosphate (3-1) O-{2-N-(acridine-9-carbamoyl)-(1-hydroxybut-3-yl)} phosphate (3-1) O-{2-N-(acridine-9-carbamoyl)-(1-hydroxybut-3-yl)} phosphate (3-1) O-{2-N-(acridine-9-carbamoyl)-3-hydroxybut-1-yl}] | high affinity | – | – | – | – | –
6 | – | – | TTCCGGAA-p-Qut: oligonucleotide 5′-TTCCGGAA-3′ carrying fluorophore Qut at the 3′-end (DNA TTCCGGAA-{code p-Qut}; not fully specified; cysteine pairing not given here; reading uncertain; also: DNA oligonucleotide with 3'-phosphate-linked Qut) | – | 44 | +9 °C | 492 | 349 | –
7 | – | – | TTCCGGAA-p-Nct: oligonucleotide 5′-TTCCGGAA-3′ carrying fluorophore Nct at the 3′-end (DNA TTCCGGAA-{code p-Nct}; not fully specified; cysteine pairing not given here; reading uncertain; also: DNA oligonucleotide with 3'-phosphate-linked Nct) | – | 46 | +11 °C | 442 | 267 | –
8 | 359 | 499 | CC(O)C(COP(=O)(O)OC(C)C(COP(=O)(O)OC(C)C(CO)NC(=O)c1c2ccccc2nc2c1[nH]c1ccccc12)NC(=O)c1c2ccccc2nc2c1[nH]c1ccccc12)NC(=O)c1c2ccccc2nc2c1[nH]c1ccccc12 (stereo not drawn) [Example 42, O-{2-N-(10H-indolo[3,2-d]quinoline-11-carbamoyl)-3-oxybut-1-yl} phosphate (3-1) O-{2-N-(10H-indolo[3,2-d]quinoline-11-carbamoyl)-3-oxybut-1-yl} phosphate (3-1) O-(2-N-{10H-indolo[3,2-d]quinoline-11-carbamoyl}-3-hydroxybut-1-yl)] | higher affinity | – | – | – | – | affinity (concentration of polymer retained, by fluorescence) [4, 9]: higher affinity; affinity (concentration of polymer retained, by fluorescence) [6, 9]: higher affinity
9 | – | – | TTCCGGAA-p-Act-p-Pht: oligonucleotide 5′-TTCCGGAA-3′ carrying dimer Act-p-Pht at the 3′-end (DNA TTCCGGAA-{code p-Act-code p-Pht}; not fully specified; cysteine pairing not given here; reading uncertain; also: DNA oligonucleotide with 3'-Act-p-Pht dimer) | – | 43 | +8 °C | 440 | 336 | –
10 | – | – | TTCCGGAA-p-Act-p-Qut: oligonucleotide 5′-TTCCGGAA-3′ carrying dimer Act-p-Qut at the 3′-end (DNA TTCCGGAA-{code p-Act-code p-Qut}; not fully specified; cysteine pairing not given here; reading uncertain; also: DNA oligonucleotide with 3'-Act-p-Qut dimer) | – | 44 | +9 °C | 485 | 351 | –
